From publication PMC9965125, “New NSAID Conjugates as Potent and Selective COX-2 Inhibitors: Synthesis, Molecular Modeling and Biological Investigation” (Molecules, 2023)

Legend:
[1] = test system: hot plate latency; assay: hot plate assay (central analgesic); assay type: in vivo, mice; details: for % Protection / Latency Period ± SE: 10 mg/kg indomethacin mol equivalent i.p.; for Latency Period ± SE: cutoff 15 sec; for Potency: at 120 min compared to indomethacin
[2] = target: T1, COX-2 (Homo sapiens, UniProt P35354); assay: COX-2 inhibitor screening assay (fluorometric kit); assay type: biochemical; details: for SI: SI = IC50 (COX-1)/IC50 (COX-2); for IC50: read-out: IC50, μM ± SD COX-2
T1 construct: purchased BioVision Incorporated K547-100 and K548-100
T1 sequence (P35354 18-604): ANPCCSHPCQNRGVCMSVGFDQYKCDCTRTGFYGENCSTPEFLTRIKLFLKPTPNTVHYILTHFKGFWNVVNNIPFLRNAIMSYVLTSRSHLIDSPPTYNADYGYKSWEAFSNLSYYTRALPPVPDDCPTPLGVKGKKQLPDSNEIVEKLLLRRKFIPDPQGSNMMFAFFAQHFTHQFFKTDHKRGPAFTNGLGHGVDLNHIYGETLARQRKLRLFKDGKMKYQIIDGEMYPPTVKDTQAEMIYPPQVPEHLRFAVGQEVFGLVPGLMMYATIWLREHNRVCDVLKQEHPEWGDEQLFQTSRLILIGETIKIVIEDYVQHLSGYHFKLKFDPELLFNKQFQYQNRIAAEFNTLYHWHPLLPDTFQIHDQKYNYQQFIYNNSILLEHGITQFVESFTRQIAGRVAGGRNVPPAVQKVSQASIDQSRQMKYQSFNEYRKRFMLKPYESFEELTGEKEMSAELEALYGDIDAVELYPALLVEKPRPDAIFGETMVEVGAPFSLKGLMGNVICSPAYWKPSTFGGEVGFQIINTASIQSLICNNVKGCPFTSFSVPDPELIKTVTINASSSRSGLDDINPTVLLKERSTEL
Protocol: the manufactor’s instructions.
The COX-1/2 inhibitor screening protocols can be summarized in following:
The test compound is dissolved in DMSO. Dilute to 10X the desired test concentration with COX-1 Assay Buffer before use. Add 10 μl diluted test inhibitor or Assay Buffer into assigned wells as sample screen [S] or Enzyme Control [EC] (no inhibitor) respectively. Add 2 μl of SC560 (in case […]
the wells as Inhibitor Control [IC].
Dilute COX Cofactor 200 times by adding 2 μl of COX Cofactor to 398 μl of COX Assay Buffer just before use. Mix well. Prepare Arachidonic Acid solution by adding 5 μl of supplied Arachidonic Acid to 5 μl of NaOH just before use. Vortex briefly to mix. Dilute Arachidonic Acid/NaOH solution 10 times by adding 90 μl ddH2O, vortex briefly to mix. Make as much as […]
For each well, prepare 80 μl of master mix as follows:
Diluted COX Cofactor 2 μl
Add 80 μl of Reaction Mix into each well. Use a multi -channel pipette to add 10 μl of diluted Arachidonic Acid/NaOH solution into each well to initiate all the reactions at the same time.
(T1 and T2) in the linear range of the plot and obtain the corresponding fluorescence values (RFU 1 […]
Calculate the slope for all samples, including Enzyme Control (EC), by dividing the net ΔRFU (RFU2 – RFU1) values by the time ΔT (T2 – T1). Calculate % Relative Inhibition as follows:
% Relative Inhibition = Slope of EC − Slope of S X 100

[3] = test system: acetic acid-induced abdominal writhing; assay: acetic acid-induced abdominal writhing assay (peripheral analgesic); assay type: in vivo, mice; details: for % Inhibition/Protection / Writing Reflex ± SE: 10 mg/kg indomethacin mol equivalent i.p.; for Potency: % inhibition/protection compared to indomethacin; for Writing Reflex ± SE: number of writhing counted for 30 min
[4] = test system: mice; assay: toxicological bioassay; assay type: in vivo; details: five times the anti-inflammatory dose (50 mg/kg indomethacin mol equivalent); recorded 24 h post-administration
Protocol: Five times the anti-inflammatory dose was orally administrated. […]
5a, 5b, 5d, 5e) was determined utilizing the standard method in mice. Albino mice weighing 20–25 g were divided into 6 groups of 6 mice each. Administrations of the tested compounds dissolved in distilled water by the aid of few drops of Tween 80 were given intraperitoneally in 50 […]
inflammatory dosage). The control group was given water only with few drops of Tween 80. The toxic symptoms and mortality rates were recorded 24 h post -administration in each group.

[5] = test system: gastric mucosa; details: both, albino, mouse, in vivo, 3 days; for % Incidence of Ulcer Divided by 10 / Average Severity of Ulcer / Average of Ulcer Number / Number of Animals with Ulcer: po, 10 mg/kg
Protocol: The ulcerogenic liability was determined in albino mice obeying the standard method.
Animals of either sex (pregnant females were excluded) weighing 20 –25 g were divided into 8 groups of 6 animals each. The animals fasted 18 h before drug administration.
80 administered orally for three successive days to fasted animals at a dose of 10 mg kg-1 (animal […]
The control group animals were given water only with few drops of Tween 80. The animals were sacrificed by cervical dislocation and the stomach was removed, opened along the greater curvature and rinsed with saline. The gastric mucosa was examined with a magnifying lens (10x) for the presence of lesions and ero sions. The ulcer index was calculated (Table 4) and the degree of ulcerogenic effect was expressed in terms of.
1. The percentage incidence of ulcers divided by 10.
2. Average number of ulcers per stomach.
3. Average severity of ulcers.
The ulcer index is the value that resulted from the sum of the above three values. […]

SMILES	% Protection ([1]; after 30 min)	Latency Period ± SE ([1]; after 30 min)	% Protection ([1]; after 60 min)	Latency Period ± SE ([1]; after 60 min)	% Protection ([1]; after 90 min)	Latency Period ± SE ([1]; after 90 min)	% Protection ([1]; after 120 min)	Latency Period ± SE ([1]; after 120 min)	Potency [1]	SI [2]	IC50 [2]	% Inhibition/Protection [3]	Potency [3]	Writing Reflex ± SE [3]	toxic symptoms or mortality [4]	Ulcer Index [5]	% Incidence of Ulcer Divided by 10 [5]	Average Severity of Ulcer [5]	Average of Ulcer Number [5]	Number of Animals with Ulcer [5]	also measured
C#CCOC(=O)C(C)c1ccc(CC(C)C)cc1 (stereo not drawn) [Compound 3, Prop-2-yn-1-yl 2-(4-isobutylphenyl) Propanoate]	55.2%	10.37 ± 1.6 s	48.3%	10.78 ± 2.1 s	19.2%	10.62 ± 2.2 s	14.9%	10.35 ± 1.7 s	26.4	2.262	8.6 ± 0.24 µM	71.8%	100.0%	11.3 ± 0.9	No toxic symptoms or mortality	4.33	3.33	0.67	0.33	2/6	–
Cc1ccc(-n2cc(COC(=O)C(C)c3ccc(CC(C)C)cc3)nn2)cc1 (stereo not drawn) [Compound 5d, (1-(p-Tolyl)-1H-1,2,3-triazol-4-yl)methyl 2-(4-isobutylphenyl)propanoate]	65.0%	11.02 ± 1.4 s	35.6%	9.86 ± 0.7 s	20.0%	10.69 ± 0.9 s	1.2%	9.12 ± 1.1 s	2.1	2.158	4.47 ± 0.13 µM	82.5%	114.9%	7.0 ± 1.3	No toxic symptoms or mortality	0	0	0	0	0	–
COc1ccccc1-n1cc(COC(=O)C(C)c2ccc(CC(C)C)cc2)nn1 (stereo not drawn) [Compound 5e, (1-(2-Methoxyphenyl)-1H-1,2,3-triazol-4-yl)methyl 2-(4-isobutylphenyl)propanoate]	88.8%	12.61 ± 2.1 s	44.8%	10.53 ± 1.8 s	36.03%	12.12 ± 1.7 s	–	11.53 ± 1.3 s	49.6	0.387	14 ± 0.4 µM	63.3%	88.2%	14.7 ± 1.6	No toxic symptoms or mortality	0	0	0	0	0	% Protection ([1]; after 120 min, 10 mg/kg): 28%
